{
  "source": "paper PMC11775380",
  "about": "“Discovery of Novel Nav1.7-Selective Inhibitors with the 1H-Indole-3-Propionamide Scaffold for Effective Pain Relief” (Research, 2025)",
  "target": "T1, human Nav1.7 (hNav1.7) (Homo sapiens, UniProt Q15858)",
  "T1 construct": "expressed in transfected cells; host or cells: HEK293T",
  "T1 sequence (Q15858 whole entry)": "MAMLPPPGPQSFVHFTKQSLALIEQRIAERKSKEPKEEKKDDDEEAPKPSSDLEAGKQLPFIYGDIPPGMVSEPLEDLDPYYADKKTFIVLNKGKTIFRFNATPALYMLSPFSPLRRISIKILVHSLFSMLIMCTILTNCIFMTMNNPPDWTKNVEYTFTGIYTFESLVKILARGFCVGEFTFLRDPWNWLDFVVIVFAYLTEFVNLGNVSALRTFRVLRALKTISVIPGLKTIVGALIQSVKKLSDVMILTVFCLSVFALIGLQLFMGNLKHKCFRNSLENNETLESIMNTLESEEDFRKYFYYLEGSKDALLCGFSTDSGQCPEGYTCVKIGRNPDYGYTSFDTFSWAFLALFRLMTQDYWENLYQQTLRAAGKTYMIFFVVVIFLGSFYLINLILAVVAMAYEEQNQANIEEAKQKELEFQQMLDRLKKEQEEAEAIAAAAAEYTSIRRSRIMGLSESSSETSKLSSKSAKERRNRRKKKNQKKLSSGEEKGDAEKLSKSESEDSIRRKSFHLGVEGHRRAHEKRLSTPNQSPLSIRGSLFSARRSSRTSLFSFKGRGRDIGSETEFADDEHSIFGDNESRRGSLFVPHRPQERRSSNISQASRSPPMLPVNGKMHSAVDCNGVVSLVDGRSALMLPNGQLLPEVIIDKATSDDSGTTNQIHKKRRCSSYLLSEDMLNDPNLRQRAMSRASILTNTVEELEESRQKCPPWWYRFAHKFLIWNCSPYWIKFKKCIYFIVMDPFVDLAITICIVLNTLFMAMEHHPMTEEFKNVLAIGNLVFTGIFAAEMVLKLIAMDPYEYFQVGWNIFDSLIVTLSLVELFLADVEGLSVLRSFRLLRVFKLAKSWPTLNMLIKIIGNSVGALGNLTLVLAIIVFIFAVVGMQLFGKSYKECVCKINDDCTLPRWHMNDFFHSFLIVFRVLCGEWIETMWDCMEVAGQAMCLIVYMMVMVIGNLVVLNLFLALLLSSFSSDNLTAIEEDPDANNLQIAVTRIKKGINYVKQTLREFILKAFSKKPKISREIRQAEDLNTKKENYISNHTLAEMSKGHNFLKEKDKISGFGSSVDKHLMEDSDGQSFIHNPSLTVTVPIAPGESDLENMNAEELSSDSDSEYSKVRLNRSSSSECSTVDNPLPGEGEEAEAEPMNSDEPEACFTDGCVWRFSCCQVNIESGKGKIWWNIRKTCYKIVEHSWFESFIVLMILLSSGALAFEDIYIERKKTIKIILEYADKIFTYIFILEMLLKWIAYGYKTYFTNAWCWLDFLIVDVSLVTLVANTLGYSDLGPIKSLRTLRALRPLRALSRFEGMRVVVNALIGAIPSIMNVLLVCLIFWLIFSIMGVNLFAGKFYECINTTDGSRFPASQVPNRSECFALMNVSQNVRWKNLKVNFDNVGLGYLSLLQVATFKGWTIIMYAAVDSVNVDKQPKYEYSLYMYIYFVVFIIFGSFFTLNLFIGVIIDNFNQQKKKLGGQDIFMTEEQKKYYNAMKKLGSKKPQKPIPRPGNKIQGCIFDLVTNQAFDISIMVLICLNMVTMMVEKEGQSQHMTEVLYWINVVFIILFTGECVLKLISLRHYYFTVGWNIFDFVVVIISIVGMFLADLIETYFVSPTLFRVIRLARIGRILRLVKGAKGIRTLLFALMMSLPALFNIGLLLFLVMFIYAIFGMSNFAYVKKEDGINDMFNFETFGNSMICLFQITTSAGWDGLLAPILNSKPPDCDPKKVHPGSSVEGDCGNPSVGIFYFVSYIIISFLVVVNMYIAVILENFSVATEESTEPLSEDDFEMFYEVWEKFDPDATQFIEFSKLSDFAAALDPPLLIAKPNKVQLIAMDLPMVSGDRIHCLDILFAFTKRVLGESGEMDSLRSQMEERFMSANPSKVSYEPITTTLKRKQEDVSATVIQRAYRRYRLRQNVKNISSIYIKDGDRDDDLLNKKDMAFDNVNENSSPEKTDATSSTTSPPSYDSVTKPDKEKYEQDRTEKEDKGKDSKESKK",
  "T1 sequence (Q07699 19-218 partner)": "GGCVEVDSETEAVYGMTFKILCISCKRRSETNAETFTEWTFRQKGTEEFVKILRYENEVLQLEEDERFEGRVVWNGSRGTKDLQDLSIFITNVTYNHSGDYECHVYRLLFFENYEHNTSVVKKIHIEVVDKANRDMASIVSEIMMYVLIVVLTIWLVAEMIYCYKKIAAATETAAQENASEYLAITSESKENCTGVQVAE",
  "T1 sequence (O60939 30-215 partner)": "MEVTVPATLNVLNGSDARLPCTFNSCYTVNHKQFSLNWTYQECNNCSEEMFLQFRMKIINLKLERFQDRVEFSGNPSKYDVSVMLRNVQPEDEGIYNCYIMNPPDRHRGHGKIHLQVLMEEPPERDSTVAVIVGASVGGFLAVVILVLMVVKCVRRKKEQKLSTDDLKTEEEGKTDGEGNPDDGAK",
  "test": "Whole-cell patch-clamp inhibition of Nav1.7 currents in transfected HEK293T cells",
  "type": "cell-based",
  "protocol": "Human embryonic kidney (HEK) 293T (ATCC CRL-3216) and ND7/23 cells (National Collection of Authenticated Cell Cultures SCSP-5026) were cultured under standard conditions (5% CO2, 37 °C) in Dulbecco’s modified Eagle’s medium (DMEM) containing 10% fetal bovine serum and 1% penicillin-streptomycin solution(all from Gibco, Thermo Fisher Scientific, Waltham, MA, USA). When the cells reached 70% to 90% confluence, human Nav1.2 (hNav1.2), human Nav1.3 (hNav1.3), human Nav1.4 (hNav1.4), human Nav1.5 (hNav1.5), and mouse Nav1.6 (mNav1.6) channel plasmids were cotransfected with enhanced green fluorescent protein (eGFP) into HEK293T cells. Additionally, plasmids expressing β1 and β2 subunits tagged with eGFP were cotransfected with the human Nav1.7 (hNav1.7) channel into HEK293T cells. Human Nav1.8 (hNav1.8) was transiently transfected into ND7/23 cells, along with eGFP, using Lipofectamine 2000 (Invitrogen), adhering strictly to the manufacturer’s protocol. For manual patch-clamp experiments, the cells were plated onto glass coverslips and used within 20 to 48 h of transfection.\nWhole-cell patch-clamp recordings were conducted at 25 ± 2 °C, utilizing an EPC 10USB patch-clamp amplifier (HEKA Elektronik, Lambrecht, Germany). Pipettes, with access resistance between 2.0 and 3.0 MΩ, were pulled from borosilicate glass capillary tubes using a 2-step vertical microelectrode puller (PC-10, Narishige Group, Tokyo, Japan). Voltage-clamp recordings were obtained with PatchMaster software v2 × 73 (HEKA Elektronik) 5 min after establishing whole-cell configuration, sampled at 20 kHz, and filtered at 5 kHz. To minimize voltage errors, 80% series resistance compensation was applied. Pipettes were filled with 140 mM CsF, 10 mM NaCl, 1 mM EGTA, and 10 mM HEPES (pH=7.4, adjusted with CsOH). The external solution contained 140 mM NaCl, 2 mM CaCl2, 1 mM MgCl2, 5 mM KCl, 10 mM HEPES, and 10 mM glucose (pH=7.4, adjusted with NaOH). IC50 values were determined in HEK293T or ND7/23 cell lines by voltage clamping at −80 mV, followed by stepping to the V1/2 of inactivation for 8 s to facilitate compound binding.",
  "data": [
    {"smiles": "Cc1ccc(Cn2cc([C@H](CC(=O)NCCN(C)C)c3ccc(F)cc3)c3ccccc32)cc1", "note": "[WN2-R]", "values": [
      {"measurement": "Activity of P1 relative to P2", "setting": "ratio of Nav1.7 IC50 values of the enantiomers", "value": 4.57, "unit": "times"},
      {"measurement": "IC50", "setting": "−80 mV holding, step to V1/2 of inactivation for 8 s, HEK293T", "value": "24.7 ± 9.4", "unit": "nM"}
    ]}
  ]
}
